Consider 4 molecules from PMC11836358 (Nature Communications, 2025).

Like-named read-outs stand apart in the source and are kept apart here.

In data set [1] the target is T1, BmrA (Bacillus subtilis, UniProt O06967, E504A). In words: biochemical.
Data set [2] deals with T1, BmrA. In words: biochemical. This is another data set of the same source.
Data set [3] concerns the molecule itself. In words: cryo-EM structure; purified BmrA E504A at 25 µM in 20 mM HEPES-NaOH pH 7.5, 100 mM NaCl, DDM/sodium cholate; 0, 25, 70, 100 µM or 5 mM ATP-Mg2+, with or without 100 µM R6G, or with Hœchst33342; inward-facing and outward-facing dimers reconstructed.

Turning to `Nc1ncnc2c1ncn2[C@@H]1O[C@H](COP(=O)(O)OP(=O)(O)OP(=O)(O)O)[C@@H](O)[C@H]1O` [ATP], the Kd at BmrA [1] was 154 ± 49 µM.

On to `CCOc1ccc(-c2nc3cc(-c4nc5cc(N6CCN(C)CC6)ccc5[nH]4)ccc3[nH]2)cc1` [Hœchst33342], for which the dissociation constant (Kd) at BmrA [2] came to 9.6 ± 1.3 µM.

On BmrA [2], `COc1cccc2c1C(=O)c1c(O)c3c(c(O)c1C2=O)C[C@@](O)(C(=O)CO)C[C@@H]3O[C@H]1C[C@H](N)[C@H](O)[C@H](C)O1` [Doxorubicin] had a Kd of 7.3 ± 2.2 µM.

B1: BmrA E504A mutant (Bacillus subtilis multidrug ABC transporter) (natural protein)
chain: MPTKKQKSKSKLKPFFALVRRTNPSYGKLAFALALSVVTTLVSLLIPLLTKQLVDGFSMSNLSGTQIGLIALVFFVQAGLSAYATYALNYNGQKIISGLRELLWKKLIKLPVSYFDTNASGETVSRVTNDTMVVKELITTHISGFITGIISVIGSLTILFIMNWKLTLLVLVVVPLAALILVPIGRKMFSISRETQDETARFTGLLNQILPEIRLVKASNAEDVEYGRGKMGISSLFKLGVREAKVQSLVGPLISLVLMAALVAVIGYGGMQVSSGELTAGALVAFILYLFQIIMPMGQITTFFTQLQKSIGATERMIEILAEEEEDTVTGKQIENAHLPIQLDRVSFGYKPDQLILKEVSAVIEAGKVTAIVGPSGGGKTTLFKLLERFYSPTAGTIRLGDEPVDTYSLESWREHIGYVSQESPLMSGTIRENICYGLERDVTDAEIEKAAEMAYALNFIKELPNQFDTEVGERGIMLSGGQRQRIAIARALLRNPSILMLDAATSSLDSQSEKSVQQALEVLMEGRTTIVIAHRLSTVVDADQLLFVEKGEITGRGTHHELMASHGLYRDFAEQQLKMNADLENKAG
notes: BmrA, efflux pump of Bacillus subtilis, type-IV MDR ABC transporter; each monomer has 1 TMD and 1 NBD; Homodimer; the plasmid pET15b encodes the mutant fused to a 6-histidine tag at the N-terminal; also called E504A^apo; E504A^R6G; source: E. coli C43(DE3)∆AcrB, pET15b; membranes solubilised in Triton X100, purified (two Ni-NTA steps, Superdex 200) in DDM/sodium cholate
Take B1: the binding result in data set [3] is “binds”.
